In the NIST ThermoML archive (doi:10.1016/j.jct.2005.09.003):

Test: xn = mol fraction of the nth substance listed
Settings: Liquid

CCCCCCCl [1-chlorohexane] + CCCCCCCC
mass density [kg/m3]
Settings	x2 = 0	x2 = 0.1016	x2 = 0.1996	x2 = 0.3153	x2 = 0.3948	x2 = 0.4862	x2 = 0.5938	x2 = 0.6966	x2 = 0.794	x2 = 0.9001
318.15 K, 39620 kPa	–	–	–	–	–	–	–	–	–	728.95
328.15 K, 100 kPa	845.18	824.75	–	784.31	770.08	754.25	736.27	719.76	704.68	688.86
328.15 K, 2130 kPa	847.12	826.75	807.96	786.36	772.17	756.35	738.33	721.87	706.7	690.84
328.15 K, 4150 kPa	849.17	828.82	810.05	788.45	774.26	758.45	740.42	723.96	708.79	692.91
328.15 K, 6180 kPa	851.16	830.83	812.05	790.48	776.28	760.49	742.45	725.98	710.81	694.93
328.15 K, 8210 kPa	853.13	832.8	814.05	792.45	778.27	762.48	744.42	728	712.79	696.92
328.15 K, 10230 kPa	855.02	834.72	815.97	794.38	780.21	764.41	746.38	729.93	714.74	698.84
328.15 K, 11250 kPa	855.98	835.67	816.92	795.34	781.17	765.37	747.33	730.88	715.68	699.79
328.15 K, 12260 kPa	856.91	836.61	817.87	796.3	782.13	766.33	748.28	731.81	716.64	700.74
328.15 K, 14290 kPa	858.76	838.48	819.73	798.16	784	768.18	750.17	733.7	718.5	702.6
328.15 K, 16310 kPa	860.59	840.3	821.56	799.99	785.83	770.03	752	735.52	720.32	704.39
328.15 K, 18340 kPa	862.35	842.06	823.33	801.75	787.59	771.78	753.76	737.29	722.07	706.15
328.15 K, 20370 kPa	864.12	843.84	825.11	803.54	789.37	–	–	–	–	–
